Laboratory results taken from patent US11044909B2, “Composition for destruction of microalgae or sphaerocarpus” (CUREARTH, INC., priority 2015, dated 2021).
pIC50: −log10 of the molar value. Like-named read-outs stand apart in the source and are kept apart here.

Key:
Assay in all cases: Microalgae-destroying effect by IC50 measurement (cell count)
Type in all cases: cell-based
Heterosigma Akashiwo = conditions: 24 h, cultured 1 day, read-out: IC50 Heterosigma Akashiwo
Experimental: (§1) The IC50 value was obtained according to Equation 1: […]
(§2) First, the above-listed microalgae were cultured in a culture flask at a temperature of about 20° C. under light conditions, and a medium used was Guillard's f/2 medium which is commonly used in the art (Guillard R R L and Keller M D. Culturing dinoflagellates. In: Spector (Ed.), Dinoflagellates. New York: Academic Press; 1984, 391442).
(§3) After the cultured microalgae were transferred onto a 24-well plate, Chattonella Marina, Heterosigma circularisquama, Cochlodinium Polykrikoides, and Heterosigma akashiwo, which were in an exponential growth phase, were treated with Compounds 1 to 3, 5 to 10, 12, 13, 17 to 43, and 45 to 47 synthesized in Examples 1 to 3, 5 to 10, 12, 13, 17 to 43, and 45 to 47 at concentrations of 0.1 uM, 0.2 uM, 0.5 uM, 1 uM, 2 uM, and 5 uM, and then cultured for 1 day.
(§4) Control groups were not treated with any of the compounds synthesized in the above-identified examples. After incubation, the number of cells of each alga was counted using a Burker-Tukr hemocytometer, and IC50 values were calculated according to Equation 1 using SigmaPlot Version 11.2 software (Standard curve: the four-parameter logistic curve).

Chattonella Marina = conditions: 24 h, cultured 1 day, read-out: IC50 Chattonella Marina
Experimental: as §1, §2, §3, §4

[1] = test system: Heterocapsa Circularisquama; conditions: 24 h, cultured 1 day
Experimental: as §1, §2, §3, §4

[2] = test system: Cochlodinium Polykrikoides; conditions: Margalefidinium polykrikoides, 24 h, 0.1-5 uM, cultured 1 day, read-out: IC50 Cochlodinium Polykrikoides
Experimental: (§5) The IC50 value was obtained according to Equation 1:
(§6) The algicidal activity of each compound was calculated using Equation 2: Algicidal activity (%)=(1−Tt/Ct)×100 <Equation 2>
(§7) In Equation 2, T (treatment group) and C (control group) represent algae densities in cell counts when each compound was inoculated and was not inoculated, respectively, and t represents the number of days which had passed after the inoculation.
as §2, §3, §4

Microcystis aeruginosa = conditions: read-out: IC50 Microcystis aeruginosa
Experimental: as §5, §6, §7, §2
Microcystis aeruginosa was treated with Compounds 1 to 3, 5 to 10, 12, 13, 17 to 43, and 45 to 51 synthesized in Examples 1 to 3, 5 to 10, 12, 13, 17 to 43, and 45 to 51 at concentrations of 0.1 uM, 0.2 uM, 0.5 uM, 1 uM, 2 uM, 5 uM, 10 uM, 15 uM, and 20 uM and then cultured for 5 days.
as §4

[3] = Table 1, 3,4-dichlorobenzylamines, 0.1-5 uM
[4] = Table 1, 3,4-dichlorobenzylamines, 0.1-5 uM, read-out: IC50 Heterocapsa Circularisquama
[5] = Table 1, 3,4-dichlorobenzylamines
[6] = Microcystis aeruginosa, 120 h, Table 1, 3,4-dichlorobenzylamines, 0.1-20 uM, cultured 5 days
[7] = Table 2, 0.1-5 uM, read-out: IC50 Heterocapsa Circulariaquama

Row | Structure (SMILES) | pIC50 (Heterosigma Akashiwo; [3]) | pIC50 (Chattonella Marina; [3]) | pIC50 [1, 4] | pIC50 [2, 5] | pIC50 (Microcystis aeruginosa; [6]) | pIC50 (Heterosigma Akashiwo; Table 2, 0.1-5 uM) | pIC50 (Chattonella Marina; Table 2, 0.1-5 uM) | pIC50 [1, 7] | pIC50 ([2]; Table 2) | pIC50 (Microcystis aeruginosa; Microcystis aeruginosa, 120 h) | pIC50 (Microcystis aeruginosa; Table 1, 3,4-dichlorobenzylamines, 0.1-20 uM, cultured 5 days)
1 | CCN(CC)CCNCc1ccc(Cl)c(Cl)c1 [Compound 1, N′-(3,4-dichloro-benzyl)-N,N-diethyl-ethane-1,2-diamine] | 5.80 | 5.54 | 5.75 | 5.64 | 5.31 |  |  |  |  |  | 
2 | CN(C)CCNCc1ccc(Cl)c(Cl)c1 [Compound 3, N′-(3,4-Dichloro-benzyl)-N,N-dimethyl-ethane-1,2-diamine] | 5.65 | < 5.30 | 5.51 | < 5.30 | 5.08 |  |  |  |  |  | 
3 | COCCNCc1ccc(Cl)c(Cl)c1 [Compound 5, (3,4-dichloro-benzyl)-(2-methoxy-ethyl)-amine] | 5.89 | < 5.30 | < 5.30 | < 5.30 | 4.85 |  |  |  |  |  | 
4 | COC(CCCNCc1ccc(Cl)c(Cl)c1)OC [Compound 6, (3,4-Dichloro-benzyl)-(4,4-dimethoxy-butyl)-amine] | 5.89 | < 5.30 | 5.32 | 5.35 | 5.06 |  |  |  |  |  | 
5 | CC(C)CCNCc1ccc(Cl)c(Cl)c1 [Compound 7, (3,4-Dichloro-benzyl)-(3-methyl-butyl)-amine] | 6.55 | 5.70 | 5.82 | 5.82 | 4.94 |  |  |  |  |  | 
6 | CN(C)CCCNCc1ccc(Cl)c(Cl)c1 [Compound 8, N′-(3,4-Dichloro-benzyl)-N,N-dimethyl-propane-1,3-diamine] | 5.90 | 6.09 | 5.48 | 6.54 | 7.05 |  |  |  |  |  | 
7 | CCN(CC)CCNC(=O)c1ccc(Cl)c(Cl)c1 [Compound 9, 3,4-Dichloro-N-(2-diethylamino-ethyl)-benzamide] |  |  |  |  |  | 5.73 | < 5.30 | 5.71 | 5.34 | 6.01 | 
8 | CN(C)CCNC(=O)c1ccc(Cl)c(Cl)c1 [Compound 10, 3,4-Dichloro-N-(2-dimethylamino-ethyl)-benzamide] |  |  |  |  |  | 5.79 | < 5.30 | < 5.30 | < 5.30 | < 5.30 | 
9 | CN(C)CCCNC(=O)c1ccc(Cl)c(Cl)c1 [Compound 12, 3,4-Dichloro-N-(3-dimethylamino-propyl)-benzamide] |  |  |  |  |  | 5.81 | < 5.30 | < 5.30 | < 5.30 | < 5.30 | 
10 | CCN(CC)CCCNC(=O)c1ccc(Cl)c(Cl)c1 [Compound 13, 3,4-Dichloro-N-(3-diethylamino-propyl)-benzamide] |  |  |  |  |  | 5.64 | 5.35 | 5.30 | 5.65 | < 5.30 | 
11 | CCNCc1ccc(Cl)c(Cl)c1 [Compound 17, (3,4-Dichloro-benzyl)-ethyl-amine] | 5.93 | < 5.30 | < 5.30 | < 5.30 | < 4.70 |  |  |  |  |  | 
12 | CCCNCc1ccc(Cl)c(Cl)c1 [Compound 18, (3,4-Dichloro-benzyl)-propyl-amine] | 6.14 | 5.57 | < 5.30 | 5.36 | 4.93 |  |  |  |  |  | 
13 | Clc1ccc(CNc2ccccc2)cc1Cl [Compound 19, (3,4-Dichloro-benzyl)-phenyl-amine] | 5.90 | 5.46 | < 5.30 | 5.38 | 4.86 |  |  |  |  |  | 
14 | CCCCNCc1ccc(Cl)c(Cl)c1 [Compound 20, Butyl-(3,4-dichloro-benzyl)-amine] | 6.36 | 5.50 | 5.54 | 5.45 | < 4.70 |  |  |  |  |  | 
15 | Clc1ccc(NCc2ccc(Cl)c(Cl)c2)cc1 [Compound 21, (4-Chloro-phenyl)-(3,4-dichloro-benzyl)-amine] | 5.89 | < 5.30 | 5.48 | 5.44 | 5.02 |  |  |  |  |  | 
16 | O=C(/C=C/c1ccc(Cl)c(Cl)c1)c1ccccc1 [Compound 22, 3-(3,4-Dichloro-phenyl)-1-phenyl-propenone] |  |  |  |  |  | 5.44 | < 5.30 | < 5.30 | 5.78 | < 5.30 | 
17 | Fc1ccc(NCc2ccc(Cl)c(Cl)c2)cc1 [Compound 23, (3,4-Dichloro-benzyl)-(4-fluoro-phenyl)-amine] | 5.81 | < 5.30 | < 5.30 | < 5.30 | 4.96 |  |  |  |  |  | 
18 | O=C(/C=C/c1ccc(Cl)c(Cl)c1)c1ccc(Cl)cc1 [Compound 24, 1-(4-Chloro-phenyl)-3-(3,4-dichloro-phenyl)-propenone] |  |  |  |  |  | 5.77 | < 5.30 | < 5.30 | 5.88 | < 5.30 | 
19 | Clc1ccc(CNc2ccc(Br)cc2)cc1Cl [Compound 25, (4-Bromo-phenyl)-(3,4-dichloro-benzyl)-amine] | 5.92 | < 5.30 | 5.55 | 5.40 | 4.95 |  |  |  |  |  | 
20 | Clc1ccc(CNCc2ccccn2)cc1Cl [Compound 26, (3,4-Dichloro-benzyl)-pyridin-2-ylmethyl-amine] | 6.14 | 5.47 | < 5.30 | < 5.30 | < 4.70 |  |  |  |  |  | 
21 | Clc1ccc(CNCc2cccnc2)cc1Cl [Compound 27, (3,4-Dichloro-benzyl)-pyridin-3-ylmethyl-amine] | 6.10 | < 5.30 | 5.45 | 5.70 | < 4.70 |  |  |  |  |  | 
22 | Clc1ccc(CNCc2ccncc2)cc1Cl [Compound 28, (3,4-Dichloro-benzyl)-pyridin-4-ylmethyl-amine] | 5.64 | < 5.30 | < 5.30 | < 5.30 | 4.82 |  |  |  |  |  | 
23 | Clc1ccc(CNCc2ccccc2)cc1Cl [Compound 29, Benzyl-(3,4-dichloro-benzyl)-amine] | 6.22 | 5.46 | 5.49 | 5.56 | 4.84 |  |  |  |  |  | 
24 | Clc1ccc(CNCCc2ccncc2)cc1Cl [Compound 30, (3,4-Dichloro-benzyl)-(2-pyridin-4-yl-ethyl)-amine] | 6.38 | 5.46 | 5.72 | 5.57 | < 4.70 |  |  |  |  |  | 
25 | Clc1ccc(CNCCc2cccnc2)cc1Cl [Compound 31, (3,4-Dichloro-benzyl)-(2-pyridin-3-yl-ethyl)-amine] | 6.23 | 5.46 | 5.80 | 6.37 | < 4.70 |  |  |  |  |  | 
26 | Clc1ccc(CNCCc2ccccn2)cc1Cl [Compound 32, (3,4-Dichloro-benzyl)-(2-pyridin-2-yl-ethyl)-amine] | 6.74 | 6.51 | 5.98 | 6.30 | 4.71 |  |  |  |  |  | 
27 | CCN(CC)CCCNCc1ccc(Cl)c(Cl)c1 [Compound 48, N′-(3,4-Dichloro-benzyl)-N, N-diethyl-propane-1,3-diamine.2HCl] |  |  |  |  |  |  |  |  |  |  | 6.11
28 | CCCCN(CCCC)CCNCc1ccc(Cl)c(Cl)c1 [Compound 49, N,N-Dibutyl-N′-(3,4-dichlorobenzyl)ethane-1,2-diamine] |  |  |  |  | 6.06 |  |  |  |  |  | 
29 | CCCCN(CCCC)CCCNCc1ccc(Cl)c(Cl)c1 [Compound 50, N,N-Dibutyl-N′-(3,4-dichlorobenzyl)propane-1,3-diamine] |  |  |  |  | 6.27 |  |  |  |  |  | 
30 | OCCN(CCO)CCCNCc1ccc(Cl)c(Cl)c1 [Compound 51, 2-[[3-(3,4-Dichlorobenzylamino)propyl]-(2-hydroxyethyl)amino]ethanol] |  |  |  |  | 5.64 |  |  |  |  |  | 
